Results as given in US4305852A, “Polypeptide compositions” (American Home Products Corporation, priority 1980, dated 1981).
Where a SMILES comes first, the peptide text is derived from it. Where no end group is shown, it is not given here. [ ]: non-standard residue; d: D form.

What was measured:
[1] = tested on: T lymphocytes; test: T lymphocyte proliferation, 3H-thymidine incorporation; type: cell-based, male CBA/J or NZB mice; conditions: 48 h culture
Experimental: T lymphocytes are isolated from spleens of male CBA/J or NZB mice. Cell homogenates are prepared in Hank's balanced salt solution (HBSS). After removal of larger particles and repeated washing of the cells in HBSS they are suspended in minimum essential medium (MEM) and passed through a glass wool column to remove macrophages. The cells are then incubated on a nylon wool column at 37° C., 95% air, 5% CO2, for 45 minutes. The non-adherant T lymphocytes are then eluted from the column, counted, and adjusted to 20×10^6 cells/ml. 50 μl of cells are cultured (37° C., 95% air, 5% CO2) with compound, for 48 hours before the addition of 0.5 μCi. of 3H-thymidine for the last 16 hours of culture. The total volume of the culture system is 200 μl. The cells are then harvested on a multiple automatic sample harvester (Mash II), the glass fiber filter disks placed in 10 ml. of xylene base scintillation fluid, and counted for 1 minute in a liquid scintillation counter. Results are reported as CPM±SE.

[2] = tested on: cells of the B lineage; conditions: in vitro; cited from earlier work
[3] = tested on: murine prothymocytes; conditions: in vitro; cited from earlier work
[4] = tested on: autologous rosette-forming cells; conditions: in vivo, athymic mice; cited from earlier work

Compound	CPM ± SE (3H-thymidine incorporation) ([1]; 0.00075 μg/culture, second experiment (blank 19275 ± 1298))	CPM ± SE (3H-thymidine incorporation) ([1]; 0.0015 μg/culture, first experiment (blank 9876 ± 951))	CPM ± SE (3H-thymidine incorporation) ([1]; 0.0015 μg/culture, second experiment (blank 19275 ± 1298))	CPM ± SE (3H-thymidine incorporation) ([1]; 0.006 μg/culture, first experiment (blank 9876 ± 951))	CPM ± SE (3H-thymidine incorporation) ([1]; 0.006 μg/culture, second experiment (blank 19275 ± 1298))	CPM ± SE (3H-thymidine incorporation) ([1]; 0.025 μg/culture, first experiment (blank 9876 ± 951))	CPM ± SE (3H-thymidine incorporation) ([1]; 0.025 μg/culture, second experiment (blank 19275 ± 1298))	CPM ± SE (3H-thymidine incorporation) ([1]; 0.1 μg/culture, first experiment (blank 9876 ± 951))	differentiative induction of cells of the B lineage [2]	differentiation of murine prothymocytes to thymocytes [3]	numbers of autologous rosette-forming cells in spleens [4]
CC(=O)O.CC(=O)O.CC(=O)O.CC(C)[C@H](NC(=O)[C@H](CC(=O)O)NC(=O)[C@H](CCCCN)NC(=O)[C@@H](N)CCCNC(=N)N)C(=O)N[C@H](C)C(N)=O [Arg--Lys--Asp--Val--D--Ala--NH2, L-arginyl-L-lysyl-L-aspartyl-L-valyl-D-alaninamide triacetate] (H-RKDV[dA]-NH2)	18983 ± 2651 CPM	20305 ± 2347 CPM	22966 CPM	18640 ± 1830 CPM	28559 ± 3663 CPM	30181 ± 3895 CPM	25515 ± 2486 CPM	21887 ± 3143 CPM	–	–	–
RKDVY [arginyl-lysyl-aspartyl-valyl-tyrosine]	–	–	–	–	–	–	–	–	inhibited differentiative induction of cells of the B lineage	induced the differentiation of murine prothymocytes to thymocytes	reducing the high numbers of autologous rosette-forming cells
